This assay deals with Human TNBC cell line HCC1187. The assay is described as follows: In vivo efficacy study, tumor growth delay of subcutaneous HCC1187 xenograft. Particulars: for TGD compared to control (group a): endpoint ten times the initial volume (1000%), difference of MTTE versus control. Details: species or system NSG mice. An excerpt: Cultured cells were harvested, washed and counted. One million cells per mouse were subcutaneously transplanted into NSG mice. Animals were monitored for tumor growth. Once average tumor volume reached between 50-130 mm^3, animals were randomized for treatment with 6-(4-Tert-Butylphenoxy)Pyridin-3-Amine , Paclitaxel as single agent and 6-(4-Tert-Butylphenoxy)Pyridin-3-Amine + Paclitaxel combination. The treatment regimen was implemented as below: • a) Vehicle • b) 6-(4-Tert-Butylphenoxy)Pyridin-3-Amine single agent for 2 weeks • c) Paclitaxel single agent for 2 weeks and then monitor tumor growth without further treatment • d) 6-(4-Tert-Butylphenoxy)Pyridin-3-Amine + Paclitaxel combination for 2 weeks and then monitor tumor growth without further treatment • e) 6-(4-Tert-Butylphenoxy)Pyridin-3-Amine + Paclitaxel combination for 2 weeks and then continue treatment with 6-(4-Tert-Butylphenoxy)Pyridin-3-Amine alone as single agent and monitor tumor growth.
Tumor dimensions (L=length, W=width) were measured using a digital caliper. Tumor volume was calculated with the following formula: L^∗W^∗W/2. Tumor growth is followed as percentage of initial volume. Median Time To Endpoint (MTTE) was measured in days for an individual group to reach 1000% (10 times) the initial volume as end point. Tumor Growth Delay (TGD) was calculated as difference in days between MTTE of control and treatment groups.

As for `CC(C)(C)c1ccc(Oc2ccc(N)cn2)cc1` [6-(4-Tert-Butylphenoxy)Pyridin-3-Amine], where the note is “group b: single agent for 2 weeks”, the “TGD compared to control (group a)” value was found to be 3 days. In addition, the “efficacy (in words)” value (single agent alone, HCC1187 xenograft) is on record as “only modest efficacy”.
For the compound `CC(=O)O[C@H]1C(=O)[C@@]2(C)[C@H]([C@H](OC(=O)c3ccccc3)[C@]3(O)C[C@H](OC(=O)[C@H](O)[C@@H](NC(=O)c4ccccc4)c4ccccc4)C(C)=C1C3(C)C)[C@]1(OC(C)=O)CO[C@@H]1C[C@@H]2O` [Paclitaxel, reference compound], where the note is “groups c, d: treatment for 2 weeks, then no treatment”, the “TGD compared to control (group a)” value worked out at 21 days.

The record behind these values is EP4223292A1, “PHARMACEUTICAL COMBINATIONS FOR TREATING CANCER” (Cellestia Biotech AG, priority 2022, dated 2023).
